“Also recorded” adds a separate entry of the source. Where two headings read alike, the source gives them in different places.
Legend:
[1] = system: parentally fed, hyperglycemic, burn-injured rabbits
Text: Our research group previously developed an animal model of critical illness that has shown to mimic the dynamic endocrine, immunological and metabolic changes characteristic of human critical illness. In this animal model we investigated the effect of critical illness on spermidine levels and the effects of spermidine-administration during critical illness on survival, organ function (clinical, biochemical, and cyto/histopathological effects), and on metabolic, inflammatory/immunological and cellular pathways. Animals were treated according to the “Principals of Laboratory Animal Care” formulated by the U.S. National Society for Medical Research and the “Guide for the Care and Use of Laboratory Animals” prepared by the National Institutes of Health. The protocol was approved by the K.U. Leuven Ethical Review Board for Animal Research. Adult male New Zealand White rabbits, weighing approximately 3 kg, were purchased from a local rabbitry, were housed individually with free access to water, hay and regular rabbit chow, and were exposed to artificial light for 14 h per day. This animal model of prolonged critical illness mimics the human condition (Weekers et al. (2003) Endocrinol 144, 5329-5338). Indeed, the critically ill animals undergo the same metabolic, immunological and endocrine disturbances and development of organ failure and muscle wasting as the human counterpart.
In our animal model, critical illness was induced by placing intravascular catheters, selectively destroying pancreatic β-cells by alloxan, followed by burn injury. […] The administration of alloxan was necessary to control both blood glucose and plasma insulin levels independently. The application of the burn wound is done 48 hours after alloxan-injection, at which time alloxan has done irreversible damage to the β-cells (selective β-cell necrosis, phase 4 after alloxan-injection). After imposing a burn wound, animals were brought to […], because this reflects most the human situation of critical illness. Non-injured, healthy rabbits served as control.
The effects of spermidine administration were investigated in parentally fed, hyperglycemic, burn-injured rabbits. The rabbits were purchased from a local rabbitry and weighed approximately 3-3.5 kg. The burn injury experiments were performed analoguous to those described above. After imposing the burn wound, animals received a continuous infusion of saline or spermidine (low dose ranging from 0.3-3 mg/day or high dose ranging from 30-300 mg/day).
At 09:00±1 h of […] (FIG. 3) animals were weighed, and under general anesthesia (30 mg/kg ketamine i.m. [Imalgene 1000; Merial, Lyon, France]; 0.15 ml/kg medetomidine i.m. [Orion, Espoo, Finland]), an ice-cold 10% solution of alloxan-monohydrate (150 mg/kg; Alloxan; Sigma-Aldrich, Bornem, Belgium) was injected slowly via a marginal ear vein. Afterward, the animals had free access to regular rabbit chow, hay and drinking water enriched with glucose to face alloxan-induced acute hypoglycemia.
At 10:00±1 h of Day 0 (FIG. 3), glycemia was measured to confirm hyperglycemia after alloxan (irreversible phase 4 after alloxan-injection). When glycemia exceeded 300 mg/dl, animals were considered eligible for the study. Under general anesthesia (see above), supplemented with 1.5 volume % isoflurane (Isoba Vet.; Schering-Plough, Brussels, Belgium) inhalation, animals were shaved and catheters were placed into the right jugular vein for intravenous infusion (4F; Vygon, Ecouen, France) and into the right carotid artery for blood sampling (5 Ch; Sherwood Medical, Tullamore, Ireland). A paravertebral block (5 ml Xylocaine 1%; Astra Zeneca, Brussels, Belgium) was performed and a full thickness burn injury of 20% body-surface area was imposed. Animals were then fitted to a homemade jacket to secure catheters and immediately returned to their cages.

[2] = system: critically ill rabbits; assay: Proof-of-concept outcome study, interim analysis (15 animals per group)
Description: Based on the pilot study, two doses of spermidine (30 and 100 mg/day) were selected to continue with.
An a priori planned interim analysis was performed after having included 15 animals per group, for selecting 1 spermidine-group to be completed next to the saline-group until 58 animals per group are included. After the interim analysis, the codes of the vials were changed, so that the proceeding of the study was again carried out blinded.
Based on the pilot study, two doses of spermidine are selected (30 and 100 mg/day) to continue with.
An interim analysis was performed after having included 15 animals per group, for selecting 1 spermidine-group that will be completed next to the saline-group until 58 animals per group are included. After the interim analysis, the codes of the vials are changed, so that the proceeding of the study is again carried out blinded.

[3] = system: histone acetyltransferase activity (HAT-activity); assay: HAT activity assay, yeast nuclear extract; format: biochemical; details: extracts of isolated yeast nuclei; spermidine 100 mM
Description: Yeast nuclei were isolated from 200 ml BY4741 wild type culture (grown for 24 h in SCD to stationary phase) as described previously (Buttner et al. (2007), Mol Cell 25, 233-246). Nuclear extract was prepared using nuclear extraction buffer from BioVision's Nuclear/Cytosol Fractionation Kit (Bio Vision, K266-25) without DTT addition, according to the manufacturer's protocol. Incubation time was doubled to 80 min with vortexing every 8 minutes. Protein concentration was determined via Bradford, giving yields of approximately 1 mg/ml protein. Yeast nuclear extract was immediately subjected to HAT activity assays.
For HAT-activity determination the commercially available HAT Activity Colorimetric Assay KIT from BioVision (Bio Vision K332-100) was employed. HAT assays were performed according to the manufacturer's protocol. […] Development of tetrazolium dye was measured by absorption at 440 nm using a GeniosPro plate reader (Tecan). Background readings were done with samples without NADH generating enzyme, giving the nuclear extracts unspecific background activity and eliminate any possible negative effects of spermidine addition on the assay itself. […] Calculated slopes of spermidine treated samples were compared to slopes of untreated samples which were set to a relative activity of 100%.

[4] = system: autophagy; assay: Yeast autophagy measurements; format: cell-based
Text: Autophagy was monitored either by vacuolar localization of Atg8p using fluorescence microscopy of cells expressing an EGFP-Atg8 fusion protein (T. Kirisako et al. (1999) J Cell Biol 147, 435-446.) or by alkaline phosphatase (ALP) activity according to Kissova et al. (Kissova at al. (2004) J Biol Chem 279, 39068-39074) using BY4741 wild type strain transformed with and selected for stable insertion of pTN9 HindIII fragment (confirmed by PCR). In order to correct for intrinsic (background) ALP activity, BY4741 (without pTN9) have been simultaneously processed and ALP activity subtracted. For generation of EGFP-ATG8 constructs see section on Molecular Biology.

[5] = preliminary results, spermidine versus saline

NCCCCNCCCN [spermidine]
mortality ([1]; 0.3 to 3 mg spermidine per day (groups D, E; 2 groups of 7 animals)): 28%
mortality ([1]; 30 to 300 mg spermidine per day (groups A, B, C; 3 groups of 8 animals)): 12.5%
plasma and tissue levels of spermidine ([1]; already seen with doses of 1-200 mg spermidine per kg per day): could restore both plasma and tissue levels of spermidine
survival rate ([1]; benefit most pronounced for the higher doses): marked improved survival rate
AST levels (marker of liver dysfunction) ([1]; days following the initial hit): rapid and profound decrease in AST-levels
rise in plasma creatinine (marker of kidney function) ([1]; high dose 30-300 mg/day, low dose 0.3-3 mg/day): could be prevented
plasma spermidine concentration ([1]; higher doses 30-300 mg/day): maintained or increased the plasma spermidine to (supra)normal values
mortality of the animals (in words) ([1]; higher doses 30-300 mg/day/rabbit): reduce the mortality
plasma spermidine concentration ([1]; low doses 0.3-3 mg/day): minimal or no effect
mortality of the animals (in words) ([1]; low doses 0.3-3 mg/day/rabbit): reduce the mortality
kidney protection ([1]; low doses of spermidine): renoprotection
autophagy (key proteins) [1, 5]: stimulation of autophagy
mitochondrial function [1, 5]: improvement of mitochondrial function
rise in ureum (marker of kidney dysfunction and muscle wasting) ([1]; spermidine infusion): could also be prevented
blood pH and lactate levels during illness ([1]; spermidine infusion versus saline): maintain a normal pH and normal lactate levels
mortality ([2]; 7 days after injury, 30 and 100 mg/day, both doses equal, placebo >50%): about one third; also recorded: much lower
rise in renal p62 levels (autophagic flux marker) ([2]; kidney, compared to saline-treated animals): attenuated
plasma spermidine concentration ([2]; spermidine 30 mg/d or 100 mg/d): maintain or increase the plasma spermidine concentration to similar (supra)physiological levels
number of animals that developed a more than 3-fold rise in normal urea levels ([2]; spermidine-treated animals, saline 18.8%, P 0.0461): 2.8%
number of animals that developed a more than 3-fold rise in normal creatinine levels ([2]; spermidine-treated animals, saline 25%, P 0.0161): 2.8%
general HAT activity [3]: efficiently inhibited
autophagy [4]: strongly induces autophagy

From patent publication US20120015901A1, “METHODS AND PREPARATIONS FOR PROTECTING CRITICALLY ILL PATIENTS” (priority 2009, published 2012)
